Earlier results as cited in patent US12042505B2, “Compositions and methods for treating dry eye” (priority 2021, dated 2024).

Details: for side effects: background statement on marketed drug

| Structure (SMILES) | hydrolysis by cholinesterase (background statement) | side effects | absorption in the gastrointestinal tract (background statement) |
| --- | --- | --- | --- |
| CC(C[N+](C)(C)C)OC(N)=O (stereo not shown) [Bethanechol] | not hydrolyzed by cholinesterase | dizziness, drowsiness, lightheadedness, headache, nausea, vomiting, abdominal cramps/pain, diarrhea, increased salivation or urination, headache, slow heart rate followed by fast heart rate, and sweating |  |
| C[N+](C)(C)CCOC(N)=O [Carbachol] |  | miosis that can diminish ocular focus | not well absorbed in the gastrointestinal tract |
| CC1OC2(CS1)CN1CCC2CC1 (stereo not shown) [Cevimeline] |  | bladder pain, nausea, vomiting, diarrhea, sweating, rash, headache, runny nose, drowsiness, hot flashes, blurred vision, difficulty sleeping |  |
| CC[C@@H]1C(=O)OC[C@@H]1Cc1cncn1C [Pilocarpine] |  | miosis, blurred vision, pupillary spasms; topically, it also results in burning and stinging |  |
| CN(C)C(=O)Oc1ccc[n+](C)c1 [Pyridostigmine] |  | dizziness, drowsiness, lightheadedness, headache, nausea, vomiting, abdominal cramps/pain, diarrhea, increased salivation or urination, headache, slow heart rate followed by fast heart rate, and sweating |  |
